Data reported in article PMC11204201 (Science Advances, 2024).

Columns and labels:
UndA = target: T1, UndA (Pseudomonas putida, UniProt A5W7G6); experiment: 1-undecene production, total turnover; assay type: biochemical; conditions: optimal conditions of UndA; details in supplement
T1 sequence (A5W7G6 1-271): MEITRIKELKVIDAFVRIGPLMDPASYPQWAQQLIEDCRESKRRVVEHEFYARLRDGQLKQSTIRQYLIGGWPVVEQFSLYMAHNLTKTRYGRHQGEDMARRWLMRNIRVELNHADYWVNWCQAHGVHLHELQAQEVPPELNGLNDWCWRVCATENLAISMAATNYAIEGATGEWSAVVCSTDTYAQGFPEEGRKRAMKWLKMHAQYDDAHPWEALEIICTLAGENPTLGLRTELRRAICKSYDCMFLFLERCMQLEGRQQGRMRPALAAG

OleT = target: T2, OleT (Jeotgalicoccus sp. ATCC 8456, UniProt E9NSU2); experiment: 1-undecene production, total turnover; assay type: biochemical; conditions: CamAB redox partner system
T2 sequence (E9NSU2 1-422): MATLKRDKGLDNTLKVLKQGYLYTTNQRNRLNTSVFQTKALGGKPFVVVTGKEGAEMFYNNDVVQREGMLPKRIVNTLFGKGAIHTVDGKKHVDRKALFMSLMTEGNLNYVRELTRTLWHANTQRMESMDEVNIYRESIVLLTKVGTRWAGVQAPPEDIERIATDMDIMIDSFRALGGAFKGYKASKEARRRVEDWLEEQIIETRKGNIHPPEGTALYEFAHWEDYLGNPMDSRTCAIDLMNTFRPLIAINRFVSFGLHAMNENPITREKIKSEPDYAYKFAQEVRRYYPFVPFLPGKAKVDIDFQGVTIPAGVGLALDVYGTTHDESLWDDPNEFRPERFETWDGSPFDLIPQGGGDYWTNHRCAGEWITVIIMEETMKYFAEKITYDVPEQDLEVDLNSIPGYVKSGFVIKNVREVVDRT

## CCCCCCCCCCCC(=O)O [compound 5, lauric acid]
UndA
  1-undecene production, total turnover: While UndA exhibited poor activity
OleT
  1-undecene production, total turnover: UndB, OleT, and OleT-AldO showed substantial 1-undecene production (fig. S6)
